pIC50: −log10 of the molar value. Several values for one entry are separate records, joined by “and”; a condition that tells them apart may be missing. Equal values may be shown once.
Tested on: 435261-313-R-J1-PDC tumor spheroid viability
Test: Anticancer human tumor 435261-313-R-J1-PDC patient-derived colon adenocarcinoma cell line growth inhibition [PI3K]
Settings: spheroids with HUVEC and MSC; for viability, T/C: stronger effect = lower value
Method in brief: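 Tumor cells grown as multi-cell spheroids with HUVEC endothelial cells and MSC fibroblast-like stroma were treated with targeted agents combined with inavolisib, alpelisib, duvelisib or copanlisib. Doses fell in half-log steps from near clinical Cmax, else from 10 microM. Viability was measured.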

[1] = curve of first compound, second compound 0.0316 µM
[2] = curve of first compound, second compound 0.1 µM
[3] = curve of first compound, second compound 0.316 µM
[4] = curve of first compound, second compound 1 µM
[5] = second compound 0.0316 µM, first compound 0.0316 µM
[6] = second compound 0.0316 µM, first compound 0.1 µM
[7] = second compound 0.0316 µM, first compound 0.316 µM
[8] = second compound 0.0316 µM, first compound 1 µM
[9] = second compound 0.0316 µM, first compound 3.16 µM
[10] = second compound 0.0316 µM, first compound 10 µM
[11] = second compound 0.1 µM, first compound 0.0316 µM
[12] = second compound 0.1 µM, first compound 0.1 µM
[13] = second compound 0.1 µM, first compound 0.316 µM
[14] = second compound 0.1 µM, first compound 1 µM
[15] = second compound 0.1 µM, first compound 3.16 µM
[16] = second compound 0.1 µM, first compound 10 µM
[17] = second compound 0.316 µM, first compound 0.0316 µM
[18] = second compound 0.316 µM, first compound 0.1 µM
[19] = second compound 0.316 µM, first compound 0.316 µM
[20] = second compound 0.316 µM, first compound 1 µM
[21] = second compound 0.316 µM, first compound 3.16 µM
[22] = second compound 0.316 µM, first compound 10 µM
[23] = second compound 1 µM, first compound 0.0316 µM
[24] = second compound 1 µM, first compound 0.1 µM
[25] = second compound 1 µM, first compound 0.316 µM
[26] = second compound 1 µM, first compound 1 µM
[27] = second compound 1 µM, first compound 3.16 µM
[28] = second compound 1 µM, first compound 10 µM
[29] = curve of first compound, second compound 3.16 µM
[30] = curve of first compound, second compound 10 µM
[31] = second compound 3.16 µM, first compound 0.0316 µM
[32] = second compound 3.16 µM, first compound 0.1 µM
[33] = second compound 3.16 µM, first compound 0.316 µM
[34] = second compound 3.16 µM, first compound 1 µM
[35] = second compound 3.16 µM, first compound 3.16 µM
[36] = second compound 3.16 µM, first compound 10 µM
[37] = second compound 10 µM, first compound 0.0316 µM
[38] = second compound 10 µM, first compound 0.1 µM
[39] = second compound 10 µM, first compound 0.316 µM
[40] = second compound 10 µM, first compound 1 µM
[41] = second compound 10 µM, first compound 3.16 µM
[42] = second compound 10 µM, first compound 10 µM
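Also: spheroids exposed to compounds for 7 days.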

In the case of `Cn1nccc1Nc1nccc(-c2ccn(C(CO)c3ccc(Cl)c(F)c3)c(=O)c2)n1` (configuration not stated) + COc1c(OCCCN2CCOCC2)ccc2c3n(c(=NC(=O)c4cnc(N)nc4)nc12)CCN3, the pIC50 (curve of first compound, second compound 0.00316 µM) was 6.62, the pIC50 (curve of first compound, second compound 0.01 µM) was 7.01 and the pIC50 [1] was over 7.50. The pIC50 [2] was over 7.50, the pIC50 [3] was over 7.50 and the pIC50 [4] was over 7.50. For the same molecule, the viability, T/C (second compound 0.00316 µM, first compound 0.0316 µM) was 70.2%, the viability, T/C (second compound 0.00316 µM, first compound 0.1 µM) was 56.1% and the viability, T/C (second compound 0.00316 µM, first compound 0.316 µM) was 47.6%. For the same molecule, the viability, T/C (second compound 0.00316 µM, first compound 1 µM) was 32.4%, the viability, T/C (second compound 0.00316 µM, first compound 3.16 µM) was 34.9% and the viability, T/C (second compound 0.00316 µM, first compound 10 µM) was 13.1%. The viability, T/C (second compound 0.01 µM, first compound 0.0316 µM) was 64.3%, the viability, T/C (second compound 0.01 µM, first compound 0.1 µM) was 48.8% and the viability, T/C (second compound 0.01 µM, first compound 0.316 µM) was 38.8%. For the same molecule, the viability, T/C (second compound 0.01 µM, first compound 1 µM) was 26.3%, the viability, T/C (second compound 0.01 µM, first compound 3.16 µM) was 22.4% and the viability, T/C (second compound 0.01 µM, first compound 10 µM) was 14.3%. For the same molecule, the viability, T/C [5] was 31.7%, the viability, T/C [6] was 28.7% and the viability, T/C [7] was 17.7%. The viability, T/C [8] was 17.9%, the viability, T/C [9] was 17.3% and the viability, T/C [10] was 9.88%. It also gave a viability, T/C [11] of 17.7%, a viability, T/C [12] of 13.6% and a viability, T/C [13] of 10.8%. For the same molecule, the viability, T/C [14] was 8.53%, the viability, T/C [15] was 5.16% and the viability, T/C [16] was 1.19%. For the same molecule, the viability, T/C [17] was 9.14%, the viability, T/C [18] was 5.37% and the viability, T/C [19] was 3.27%. It also gave a viability, T/C [20] of 2.55%, a viability, T/C [21] of 0.85% and a viability, T/C [22] of 0.46%. The viability, T/C [23] was 4.18%, the viability, T/C [24] was 2.97% and the viability, T/C [25] was 1.36%. For the same molecule, the viability, T/C [26] was 1.15%, the viability, T/C [27] was 0.78% and the viability, T/C [28] was 0.48%.
Work on `CC1(C)CCC(Nc2ncc(C(F)(F)F)c(-c3c[nH]c4c(P(C)(C)=O)c(C#N)ccc34)n2)CN1` (configuration not stated) + Cc1nc(NC(=O)N2CCCC2C(N)=O)sc1-c1ccnc(C(C)(C)C(F)(F)F)c1 yielded a pIC50 [1] of over 7.50, a pIC50 [2] of over 7.50 and a pIC50 [3] of over 7.50. The pIC50 [4] was over 7.50, the pIC50 [29] was over 7.50 and the pIC50 [30] was over 7.50. The viability, T/C [5] was 47.1%, the viability, T/C [6] was 45.9% and the viability, T/C [7] was 39.3%. The viability, T/C [8] was 38.1%, the viability, T/C [9] was 33.7% and the viability, T/C [10] was 0.64%. For the same molecule, the viability, T/C [11] was 48.5%, the viability, T/C [12] was 36.8% and the viability, T/C [13] was 41.9%. For the same molecule, the viability, T/C [14] was 38.3%, the viability, T/C [15] was 32.4% and the viability, T/C [16] was 0.39%. It also gave a viability, T/C [17] of 35.5%, a viability, T/C [18] of 33.5% and a viability, T/C [19] of 27.3%. It also gave a viability, T/C [20] of 29.3%, a viability, T/C [21] of 25.4% and a viability, T/C [22] of 0.33%. It also gave a viability, T/C [23] of 23.3%, a viability, T/C [24] of 22.3% and a viability, T/C [25] of 26.7%. For the same molecule, the viability, T/C [26] was 27.3%, the viability, T/C [27] was 14.8% and the viability, T/C [28] was 0.53%. The viability, T/C [31] was 14.8%, the viability, T/C [32] was 17.2% and the viability, T/C [33] was 14.7%. It also gave a viability, T/C [34] of 14.2%, a viability, T/C [35] of 6.95% and a viability, T/C [36] of 0.84%. For the same molecule, the viability, T/C [37] was 7.65%, the viability, T/C [38] was 5.94% and the viability, T/C [39] was 5.07%. For the same molecule, the viability, T/C [40] was 6.14%, the viability, T/C [41] was 2.6% and the viability, T/C [42] was 1.22%.
In the case of `CNC(=O)c1ccc(N2C(=S)N(c3ccc(C#N)c(C(F)(F)F)c3)C(=O)C2(C)C)cc1F`, the viability, T/C (compound 3.16 µM) was 106% [middle of 4 runs] and the pIC50 (curve of compound) was under 5.00.
Molecule `CC(C)NCC(C(=O)N1CCN(c2ncnc3c2C(C)CC3O)CC1)c1ccc(Cl)cc1` (configuration not stated) + CC(Nc1ncnc2nc[nH]c12)c1cc2cccc(Cl)c2c(=O)n1-c1ccccc1 has a pIC50 [1] of 5.38, a pIC50 [2] of 5.19 and a pIC50 [3] of 5.43. For the same molecule, the pIC50 [4] was 5.32, the pIC50 [29] was 5.35 and the pIC50 [30] was 6.11. For the same molecule, the viability, T/C [5] was 98.3%, the viability, T/C [6] was 102% and the viability, T/C [7] was 101%. The viability, T/C [8] was 76.7%, the viability, T/C [9] was 60% and the viability, T/C [10] was 24.4%. For the same molecule, the viability, T/C [11] was 104%, the viability, T/C [12] was 88.9% and the viability, T/C [13] was 91.2%. It also gave a viability, T/C [14] of 102%, a viability, T/C [15] of 71.5% and a viability, T/C [16] of 36.3%. The viability, T/C [17] was 130%, the viability, T/C [18] was 88.7% and the viability, T/C [19] was 77.6%. It also gave a viability, T/C [20] of 67.7%, a viability, T/C [21] of 72.5% and a viability, T/C [22] of 26%. For the same molecule, the viability, T/C [23] was 98.1%, the viability, T/C [24] was 93.9% and the viability, T/C [25] was 68.1%. It also gave a viability, T/C [26] of 80%, a viability, T/C [27] of 65.8% and a viability, T/C [28] of 30.6%. It also gave a viability, T/C [31] of 83.1%, a viability, T/C [32] of 84.8% and a viability, T/C [33] of 61.8%. For the same molecule, the viability, T/C [34] was 74.2%, the viability, T/C [35] was 65.9% and the viability, T/C [36] was 18.4%. It also gave a viability, T/C [37] of 72.1%, a viability, T/C [38] of 69.6% and a viability, T/C [39] of 38.8%. The viability, T/C [40] was 59.3%, the viability, T/C [41] was 39.6% and the viability, T/C [42] was 14.9%.
In the case of `C#Cc1c(F)ccc2cc(O)cc(-c3ncc4c(N5CC6CCC(C5)N6)nc(OCC56CCCN5CC(F)C6)nc4c3F)c12` (configuration not stated), the viability, T/C (compound 0.0316 µM) was 89.8% and 97.7% and 83.1%, the viability, T/C (compound 0.1 µM) was 91.7% and 82.7% and 95.5% and the viability, T/C (compound 0.316 µM) was 124% and 84% and 113%. The viability, T/C (compound 1 µM) was 95.2% and 62.6% and 64%, the viability, T/C (compound 3.16 µM) was 61.5% and 78.3% and 73.5% and the viability, T/C (compound 10 µM) was 36.6% and 30.7% and 31.1%. For the same molecule, the pIC50 (curve of compound) was 5.27 and 5.26 and 5.25.
`CNC(=O)c1ccc(N2C(=S)N(c3ccc(C#N)c(C(F)(F)F)c3)C(=O)C2(C)C)cc1F` + CC(Nc1ncnc2nc[nH]c12)c1cc2cccc(Cl)c2c(=O)n1-c1ccccc1 was tested, and the pIC50 [1] was under 5.00, the pIC50 [2] was under 5.00 and the pIC50 [3] was under 5.00. It also gave a pIC50 [4] of under 5.00, a pIC50 [29] of under 5.00 and a pIC50 [30] of under 5.00. For the same molecule, the viability, T/C [5] was 106%, the viability, T/C [6] was 70.5% and the viability, T/C [7] was 72.3%. The viability, T/C [8] was 82.8%, the viability, T/C [9] was 99.8% and the viability, T/C [10] was 74.8%. The viability, T/C [11] was 101%, the viability, T/C [12] was 90.6% and the viability, T/C [13] was 111%. The viability, T/C [14] was 121%, the viability, T/C [15] was 79.7% and the viability, T/C [16] was 65.7%. It also gave a viability, T/C [17] of 78.5%, a viability, T/C [18] of 90.4% and a viability, T/C [19] of 103%. For the same molecule, the viability, T/C [20] was 79.8%, the viability, T/C [21] was 102% and the viability, T/C [22] was 81.8%. For the same molecule, the viability, T/C [23] was 95.1%, the viability, T/C [24] was 97.1% and the viability, T/C [25] was 75.9%. The viability, T/C [26] was 86.5%, the viability, T/C [27] was 73.1% and the viability, T/C [28] was 66.4%. For the same molecule, the viability, T/C [31] was 101%, the viability, T/C [32] was 91.6% and the viability, T/C [33] was 69.5%. The viability, T/C [34] was 64.5%, the viability, T/C [35] was 59.3% and the viability, T/C [36] was 67.3%. The viability, T/C [37] was 55%, the viability, T/C [38] was 44.7% and the viability, T/C [39] was 64%. For the same molecule, the viability, T/C [40] was 68.6%, the viability, T/C [41] was 58.5% and the viability, T/C [42] was 39.8%.
